Data taken from ChEMBL document CHEMBL4715852, “Advances in the Design of Genuine Human Tyrosinase Inhibitors for Targeting Melanogenesis and Related Pigmentations” (J Med Chem, 2020).

What was measured:
[1] = molecular target: T1, Tyrosinase (Homo sapiens, UniProt P14679); assay: Inhibition of human His-tagged tyrosinase expressed in HEK 293 cells using L-DOPA as substrate by Lineweaver-Burk plot analysis; set-up: species or system HEK293
T1 sequence (P14679 whole entry): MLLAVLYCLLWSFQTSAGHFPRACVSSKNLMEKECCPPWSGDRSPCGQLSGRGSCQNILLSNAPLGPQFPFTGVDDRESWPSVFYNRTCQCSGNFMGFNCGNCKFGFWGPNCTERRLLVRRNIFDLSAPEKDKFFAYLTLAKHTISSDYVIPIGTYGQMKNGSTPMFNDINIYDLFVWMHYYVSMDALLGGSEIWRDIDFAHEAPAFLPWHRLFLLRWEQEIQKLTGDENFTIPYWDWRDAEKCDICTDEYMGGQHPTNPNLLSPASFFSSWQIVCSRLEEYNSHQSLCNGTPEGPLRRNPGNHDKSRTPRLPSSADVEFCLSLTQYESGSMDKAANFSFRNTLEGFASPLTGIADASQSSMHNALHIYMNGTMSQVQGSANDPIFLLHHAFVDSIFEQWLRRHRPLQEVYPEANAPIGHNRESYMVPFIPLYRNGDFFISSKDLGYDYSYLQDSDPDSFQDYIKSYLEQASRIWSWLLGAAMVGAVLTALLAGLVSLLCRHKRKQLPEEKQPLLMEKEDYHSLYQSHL

[2] = molecular target: T2, Mushroom tyrosinase (Agaricus bisporus, UniProt O42713+Q00024+C7FF04+C7FF05); assay: Inhibition of mushroom tyrosinase
[3] = molecular target: T1, Tyrosinase; assay: Inhibition of human tyrosinase expressed in HEK293 cells; type: cell-based
[4] = molecular target: T1, Tyrosinase; assay: biochemical
Description: Inhibition of human His-tagged tyrosinase expressed in HEK 293 cells using L-DOPA as substrate by MBTH based assay

[5] = molecular target: T1, Tyrosinase; assay: Inhibition of human HMV-II cell derived tyrosinase using L-DOPA as substrate by light absorbance method; type: cell-based, HMV-2 cell line
[6] = molecular target: T1, Tyrosinase; assay: Inhibition of human tyrosinase using L- DOPA as substrate by MBTH based assay
[7] = molecular target: T2, Mushroom tyrosinase; assay: Inhibition of mushroom tyrosinase using L-tyrosine as substrate by spectrophotometric method
[8] = molecular target: T1, Tyrosinase; assay: Inhibition of tyrosinase in human neonatal foreskin epidermal melanocyte cells using L-DOPA as substrate preincubated for 24 hrs followed by cell lysis and subsequent substrate addition and measured after 1 hr by ELISA; type: cell-based
[9] = molecular target: T1, Tyrosinase; assay: Inhibition of tyrosinase in human melanocytes using L-[3,5-3H]-tyrosine as substrate incubated for 1 to 3 days by liquid scintillation counting method; type: cell-based, Melanocyte
[10] = molecular target: T1, Tyrosinase; assay: Inhibition of human tyrosinase expressed in Escherichia coli
[11] = molecular target: T1, Tyrosinase; assay: Inhibition of tyrosinase in neonatal human epidermal melanocytes; set-up: species or system Melanocyte
[12] = molecular target: T1, Tyrosinase; assay: Inhibition of tyrosinase in human melanocyte cells using L-DOPA as substrate by absorbance method; type: cell-based
[13] = molecular target: T1, Tyrosinase; assay: Inhibition of human tyrosinase expressed in HEK293 cells using L-tyrosine as substrate and DOPA as cofactor by indirect spectrophotometric method; type: cell-based
[14] = molecular target: T1, Tyrosinase; assay: Inhibition of tyrosinase in human neonatal foreskin epidermal melanocyte cells using L-tyrosine and L-DOPA as substrate preincubated for 2 days followed by cell lysis and subsequent substrate addition and measured after 3 hr by spectrophotometric method; type: cell-based
[15] = molecular target: T1, Tyrosinase; assay: Mixed inhibition of recombinant human tyrosinase expressed in baculovirus infected sf9 cells using L-DOPA as substrate by double-reciprocal plot analysis
[16] = molecular target: T2, Mushroom tyrosinase
Description: Competitive inhibition of White button mushroom tyrosinase using L-DOPA as substrate by Lineweaver-Burk plot

[17] = molecular target: T1, Tyrosinase; assay: Inhibition of human tyrosinase expressed in human SKMEL188 cell lysate using L- DOPA as substrate incubated for 8 hrs; type: subcellular, SK-MEL-188
[18] = molecular target: T1, Tyrosinase; assay: Inhibition of human HMV-II cell derived tyrosinase using DOPA as substrate incubated for 5 mins by light absorbance method; set-up: species or system HMV-2 cell line

CCCCc1ccc(O)cc1O [RUCINOL]
Ki [1]: 9.1 µM
IC50 [2]: 0.6 µM

Oc1ccc(/C=C/c2cc(O)cc(O)c2)cc1 [RESVERATROL]
IC50 [3]: 9 µM

CC(C)C(=O)Nc1nc(-c2ccc(O)cc2O)cs1
Ki [1]: 0.25 µM
IC50 [4]: 1.1 µM

O=C(/C=C/c1ccc(O)cc1)OC1=C(O)C(=O)O[C@@H]1[C@H](O)CO
IC50 [3]: 10 µM

COC1=CC(=C/C=C/C=C2C=C(OC)C(=O)C(OC)=C2)C=C(OC)C1=O
IC50 [5]: 2.5 µM

O=C(Nc1nc(-c2ccc(O)cc2O)cs1)c1ccccc1
IC50 [6]: 2.5 µM

CC(c1ccccc1)c1ccc(O)cc1O (configuration not stated)
Ki [1]: 24 µM
IC50 [4]: 131 µM
IC50 [7]: 0.3 µM

COc1cc(/C=C\C(=O)NCCCCNC(=O)/C=C/c2ccc(O)c(OC)c2)ccc1O
IC50 [8]: 85 µM

CC(=O)Nc1nc(-c2ccc(O)cc2O)cs1
IC50 [6]: 3.2 µM

CC(C)(C)c1ccc(O)cc1
IC50 [9]: 10 µM

O=c1oc2ccccc2cc1O [3-HYDROXYCOUMARIN]
Ki [10]: 3.4 µM

O=C(Nc1nc(-c2ccc(O)cc2O)cs1)c1ccc(CO)cc1
IC50 [6]: 1.6 µM

O=C(O)/C=C/c1ccc(O)cc1 [COUMARIC ACID]
IC50 [11]: 2 µM
IC50 [3]: 2 µM

COc1cc(/C=C/C(=O)NCCc2ccc(O)c(O)c2)ccc1O [N-TRANS-FERULOYLDOPAMINE]
IC50 [11]: 50 µM

O=C(Nc1nc(-c2ccc(O)cc2O)cs1)C1CCCCC1
IC50 [6]: 4.6 µM

COc1cc(/C=C/C(=O)CC(=O)/C=C/c2ccc(O)c(OC)c2)ccc1O [CURCUMIN]
IC50 [12]: 5 µM

CCCCn1cc(O)c(=O)cc1C
Ki [6]: 100 µM

CCSCc1cc(=O)c(O)co1
Ki [6]: 19 µM

O=c1cc(-c2ccc(O)c(O)c2)oc2cc(O)cc(O)c12 [LUTEOLIN]
IC50 [13]: 60 µM

CCCSCc1cc(=O)c(O)co1
Ki [6]: 27 µM

C=C1OC(=O)/C(=C\CCCCCCCCCCCCC)[C@H]1O
IC50 [14]: 1 µM

CCCCCCc1ccc(O)cc1O [HEXYLRESORCINOL]
Ki [1]: 39 µM
IC50 [4]: 94 µM
IC50 [7]: 1.2 µM

O=C(/C=C/c1ccc(O)cc1)OC1=C(O)[C@@H]([C@H](O)CO)OC1=O
IC50 [3]: 40 µM

O=C(CCc1ccc(O)c(O)c1)c1c(O)cc(O)cc1O
IC50 [8]: 32 µM

Nc1nc(-c2ccc(O)cc2O)cs1
IC50 [6]: 51 µM

O=C(O)c1ccccc1 [BENZOIC ACID]
Ki [15]: 520 µM
Ki [16]: 4.6 µM

CCCCCSCc1cc(=O)c(O)co1
Ki [6]: 46 µM

COc1ccc(CCCc2ccc(O)cc2O)c(OC)c1C
IC50 [2]: 0.24 µM

O=c1cc(-c2ccc(O)c(O)c2)oc2cc(OS(=O)(=O)O)cc(O)c12
IC50 [13]: 16 µM

Oc1cccc(O)c1 [RESORCINOL]
IC50 [4]: > 3000 µM

CCCCCCCCCCCCC/C=C1\C(=O)O[C@@](C)(OC)[C@@H]1O [SUBAMOLIDE A]
IC50 [14]: 1 µM

N[C@H](Cc1ccccc1)C(=O)O[C@H]1CC[C@H](c2ccc(O)cc2O)CC1
IC50 [17]: 2 µM

Oc1ccc2cc[nH]c2c1
IC50 [18]: 22 µM

CCCn1cc(O)c(=O)cc1C
Ki [6]: 75 µM

O=C(O)c1ccc(Nc2nc(-c3ccc(O)cc3O)cs2)cc1
IC50 [6]: 2.6 µM

Oc1ccc(-c2csc(Nc3ncccn3)n2)c(O)c1
IC50 [6]: 3.2 µM

CC(C)(C)C(=O)Nc1nc(-c2ccc(O)cc2O)cs1
IC50 [6]: 1.4 µM

CSCc1cc(=O)c(O)co1
Ki [6]: 46 µM

CC(C)SCc1cc(=O)c(O)co1
Ki [6]: 50 µM
